The source of these data is patent publication EP0333028A1, “1-Substituted 4-pentafluorophenoxypiperidines, a process for their preparation and their use as medicaments” (HOECHST-ROUSSEL PHARMACEUTICALS INCORPORATED, priority 1988, dated 1989).

Holding throughout (format): in vivo
Experiment [1] concerns male mice (Charles River, CD-1). Nature of the experiment: supramaximal electroshock (SES) assay. The conditions noted are these: Mus musculus, ip, protection against extensor tonus after electroshock, read-out: Anticonvulsant Activity SES ED₅₀. The method, then:
(§1) The compounds of this invention are useful as anticonvulsants due to their anticonvulsant activity in mammals. Anticonvulsant activity is measured in male mice using the supramaximal electroshock (SES) assay described in Arch. Int. Pharmacodyn. 92, pp. 97-107, (1952) and the metrazol lethality assay (MTZ) described in J. Pharmacol. Exp. Ther., 81, 402 (1944).
Groups of male mice (Charles River, CD-1) weighing 18 to 30 g are employed in the SES assay. Test compounds are dissolved in distilled water, or if insoluble, suspended in water containing one drop of a surfactant, such as Tween-80. Test compounds are generally administered intraperitoneally at a dose of 10 ml of solution, or suspension, per kg of animal body weight. The output terminals of an A.C. shocker, which delivers 206 volts rms for 300 msec, are placed across the animals' eyes, an electrode paste coating assuring contact of the terminals with the eyes. The test compound is administered and thereafter the subject animals are shocked.
Protection is expressed as normalized percent inhibition relative to vehicle control. [formula] A time response is carried out using 6 animals per group. Animals are tested at 30, 60 and 120 minutes post drug. Additional time periods are tested if indicated by previous tests. A dose range determination is generally reserved for those compounds which inhibit convulsions by greater than about 45-55% at the screening dose employed at the time the test was performed. When the peak activity time has been determined, a dose response is initiated, using 10 animals per group at that time period.
A general note: The maximal electroshock test induces tonic seizures with an electrical stimulus.

For experiment [2] the test system is unchanged. The experiment in a line: Metrazol lethality assay (MTZ). The conditions noted are these: Mus musculus, po, protection against Metrazol lethality, read-out: Anticonvulsant Activity MTZ ED₅₀. How it is done: as §1
Groups of male mice (Charles River, CD-1), weighing 18 to 30 grams are employed in the Metrazol lethality assay. Test compounds are dissolved in distilled water or if insoluble, suspended in water, to which a surfactant, such as Tween-80 is added. The test compounds are administered orally, the administered dose being dissolved or suspended in 10 ml of solution or suspension per kg of animal body weight. Control aminals (2 mice/group) receive water or water and Tween-80, i.e., the vehicle for administration of the test compound. Metrazol (pentylenetetrazol) is dissolved in water (concentration 225 mg of Metrazol/10 ml of solution), and the solution is administered subcutaneously to groups of five animals each at one or more time intervals of 15, 30, 60, 90, or 120 minutes after administration of the test compound. The number of animal alive 15 minutes after treatment with Metrazol is determined and recorded. The following formula is employed to calculate the percent protection against Metrazol lethality. [formula]
A dose range determination is performed by substantially the same procedure as the time response determination. In the dose range determination, five groups of 10 animals per group are employed. This determination is generally reserved for those compounds which protect against lethality by greater than 70% at the screening dose employed.

The test system is the same in experiment [3]. Nature of the experiment: tetrabenazine induced ptosis assay (TBZ). Conditions: Mus musculus, ip, 50% inhibition of tetrabenazine-induced ptosis, read-out: Antidepressant Activity TBZ ED₅₀. The method, then: The compounds of this invention are also useful as antidepressants by virtue of their ability to elicit an antidepressant response in mammals. […] In the tetrabenazine induced ptosis assay, male mice (Charles River, CD-1), weighing 20 to 39 g, are used in test groups of five animals. Test compounds are dissolved, or suspended with 1 drop of Tween-80, in distilled water and administered to the animals in volumes of 10 cc per kg of body weight. Tetrabenazine methanesulfonate (76.78% as the free base) is dissolved in distilled water and the concentration of the solution is adjusted so that the dose, administered intraperitoneally (i.p.) to the animals, is 40 mg of tetrabenazine base per kg of animal body weight. The test compound is administered intraperitoneally (i.p.) or perorally (p.o.) to the subject animals, and the tetrabenazine solution is administered 30 minutes or 60 minutes, respectively, thereafter. […] The subject animals are placed in individual plastic containers of the size 26.7 cm x 20.3 cm x 15.2 cm (10.1/2" x 8" x 6") thirty (i.p.) and sixty minutes (p.o.) after administration of the tetrabenazine solution, and one minute thereafter, the animals scored for ptosis on the following scale: [table] […] The results are discarded and the test is repeated, if the control score is determined to be less than 17. […]

Experiment [4] has as its system spontaneous hypertensive rat. The experiment in a line: antihypertensive activity, indirect tail cuff method (SHR). The conditions noted are these: 50 mg/kg p.o. for three days, measured on the third day, decrease in mean arterial blood pressure. The method, then: In this procedure a group of five animals is treated orally for three days with the test compound in relation to a control group of the same number. The drop in blood pressure is measured on the third day following administration. […]

Molecules are shown by their SMILES.

As to `CNC(=O)N1CCC(Oc2c(F)c(F)c(F)c(F)c2F)CC1` [Example 1, 1-[(N-Methylamino)carbonyl]-4-(2,3,4,5,6-pentafluorophenoxy)piperidine], the ED50 in experiment [1] came to 62.5 mg/kg; in experiment [2], 35.9 mg/kg; in experiment [3], 11.3 mg/kg.

For the compound `CCC1(c2ccccc2)C(=O)NC(=O)NC1=O` [Phenobarbital, reference compound], the values for the ED50 in experiment [1] and in experiment [2] were 8.4 mg/kg and 16.9 mg/kg, respectively.

Turning to `NC(=O)N1CCC(Oc2c(F)c(F)c(F)c(F)c2F)CC1` [Example 7, 1-Aminocarbonyl-4-(2,3,4,5,6-pentafluorophenoxy)piperidine], the “mm dec. in blood pressure at 50 mg/kg p.o.” value in experiment [4] is listed as 39 mm Hg.

As to `N=C(N)NCCN1CCCCCCC1` [Guanethidine, reference compound], the “mm dec. in blood pressure at 50 mg/kg p.o.” value in experiment [4] is recorded as 20 mm Hg.

Turning to `CC(=O)N1CCC(Oc2c(F)c(F)c(F)c(F)c2F)CC1` [Example 6, 1-Acetyl-4-(2,3,4,5,6-pentafluorophenoxy)piperidine], the “mm dec. in blood pressure at 50 mg/kg p.o.” value in experiment [4] is on record as 36 mm Hg.

Turning to `CN(C)C(=O)N1CCC(Oc2c(F)c(F)c(F)c(F)c2F)CC1` [Example 2, 1-[(N,N-Dimethylamino)carbonyl]-4-(2,3,4,5,6-pentafluorophenoxy)piperidine], the ED50 in experiment [1] was 50.2 mg/kg; in experiment [2], 40.4 mg/kg.

On to `CN(C)CCC=C1c2ccccc2CCc2ccccc21` [Amitriptyline, reference compound], for which the ED50 in experiment [3] came to 1.5 mg/kg.
